In patent US7915293B2, “Ubiquitin ligase inhibitors” (Rigel Pharmaceuticals, Inc., priority 2003, dated 2011):

Tests used:
Set-up in all cases: key: “+” indicates that the compound exibits inhibitory activity; “−” indicates that low or no inhibitory activity was observed
[1] = system: HeLa cells; assay: Cell proliferation assay, photographic image analysis of proliferation, apoptosis and death (PAD assay), HeLa; assay type: cell-based; conditions: 6 concentrations tested
Procedure, shortened: (§1)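 Cells grown in RPMI with 5% FBS (2,000/well) and dosed 24 h after plating with 6.3-fold dilutions in duplicate (master plate 500× final, top 10 mM stock). After 48 h at 37 °C, cells formamide-fixed and DAPI-stained. Image analysis counted live, apoptotic and dead cells.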

[2] = system: HeLa cells; assay: Non-photographic proliferation analysis (Promega Cell titer Aqueous), HeLa; assay type: cell-based; conditions: 6 concentrations tested
Procedure, shortened: (§2)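 HeLa, A549 and HCT116 cells, 2,000 per well in RPMI with 5% FBS, were given compounds 24 h after plating as 6.3-fold duplicate dilutions from 10 mM stock, diluted 500-fold into the wells. After 48 h at 37° C, 5% CO2, Cell titer Aqueous reagent was added for 45 min and absorbance read at 490 nm.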

[3] = system: A549 cells; assay: Non-photographic proliferation analysis (Promega Cell titer Aqueous), A549; assay type: cell-based; conditions: 6 concentrations tested
Procedure, shortened: as §2

[4] = system: H1299 cells; assay: Cell proliferation assay, photographic image analysis of proliferation, apoptosis and death (PAD assay), H1299; assay type: cell-based; conditions: 6 concentrations tested
Description: (§3) A549 (ATCC# CCL-185), HeLa (ATCC# CCL-2), HCT116 (ATCC# CCL-247), and H1299 (ATCC# CRL-5803) cells were maintained in T175 flasks following the ATCC recommended media and handling procedures. Flasks reaching approximately 70% confluency were trypsinized and resuspended in RPMI media (Cell-Gro catalog number 10-040-CM) modified to contain 5% FBS, 100 ug/mlPen/Strep (Cell-Gro catalog number 30-002-CL), and 0.3 mg/ml L-Glutamine (Cell-Gro catalog number 25-003-CL). A 20,000 cells/ml solution was made for plating. Cells were plated in black Packard 96 well plates by placing 100 μl per well (2,000 cells per well).
(§4) Compounds and additional media were added 24 hours after cell plating. A compound master plate was created with concentrations 500 times greater than the final concentration added to the cells. All compound testing was done in duplicate using 6.3 fold dilutions starting with 10 mM. All outside wells (and 4 internal wells) were DMSO controls. Taxol and at least one additional control were run on all plates. Three microliters of the compound master plate were added to deep well blocks containing 750 μl of RPMI media. One hundred microliters were transferred from the compound/media deep well blocks to the plated cells resulting in a 500 fold dilution of the compounds. Cells were grown at 37° C., 5% CO2 for 48 hours.
(§5) Cells to be analyzed by photography were fixed and stained. One hundred microliters of media were removed and 100 μl of 9.3% […] was added to each well. Plates were left on the benchtop for 45 minutes. A staining solution containing 1.55 μl of 1 mg/ml DAPI added to 18.75 ml PBS was warmed for 15 minutes at 37° C. The cells were aspirated prior to washing with 100 μl of PBS. Seventy microliters of PBS were aspirated and 170 μl of the DAPI solution were added to each well of fixed cells. Plates were left at room temperature for one hour then aspirated and washed twice with 100 μl of PBS. The stained cells were left at 4° C. for a minimum of 16 hours before photographic analysis with Array Scan II (Cellomics). Analysis of the photographic images to determine numbers of live cells (proliferation), apoptotic cells and dead cells, were according to the methods described in U.S. Provisional Patent Application Ser. No. 60/406,714, which incorporated herein in its entirety.

[5] = target: T1, E3 (His-APC11/APC2-"APC") (Homo sapiens, UniProt Q9NYG5+Q9UJX6); assay: Plate-based E3 ligase assay (APC FLAG), auto-ubiquitination; assay type: biochemical; conditions: 8 concentrations tested
T1 sequence (Q9NYG5 whole entry): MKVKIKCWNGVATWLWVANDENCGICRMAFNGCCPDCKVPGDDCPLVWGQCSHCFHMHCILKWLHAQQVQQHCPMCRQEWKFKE
T1 sequence (Q9UJX6 whole entry): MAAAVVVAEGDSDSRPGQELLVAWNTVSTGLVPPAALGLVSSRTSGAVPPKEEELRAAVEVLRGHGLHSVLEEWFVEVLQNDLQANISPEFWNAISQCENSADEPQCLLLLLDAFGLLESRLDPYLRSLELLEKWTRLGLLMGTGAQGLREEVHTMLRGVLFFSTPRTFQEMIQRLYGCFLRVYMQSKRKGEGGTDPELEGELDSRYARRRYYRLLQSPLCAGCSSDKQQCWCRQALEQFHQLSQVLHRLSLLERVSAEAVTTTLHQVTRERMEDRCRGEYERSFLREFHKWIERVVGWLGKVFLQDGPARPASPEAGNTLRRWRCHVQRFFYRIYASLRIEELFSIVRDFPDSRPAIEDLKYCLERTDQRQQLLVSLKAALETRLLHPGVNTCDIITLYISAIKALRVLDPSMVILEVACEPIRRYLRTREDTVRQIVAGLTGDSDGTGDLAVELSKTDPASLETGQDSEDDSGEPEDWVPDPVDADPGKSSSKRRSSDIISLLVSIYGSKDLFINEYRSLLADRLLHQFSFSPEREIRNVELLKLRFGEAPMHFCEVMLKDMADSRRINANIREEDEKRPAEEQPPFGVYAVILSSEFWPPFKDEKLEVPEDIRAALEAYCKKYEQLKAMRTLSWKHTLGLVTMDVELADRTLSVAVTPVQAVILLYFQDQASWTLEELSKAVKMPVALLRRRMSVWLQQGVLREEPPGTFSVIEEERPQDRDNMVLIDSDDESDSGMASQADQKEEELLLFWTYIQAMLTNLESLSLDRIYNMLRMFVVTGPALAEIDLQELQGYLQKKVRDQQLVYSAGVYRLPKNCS
Procedure, shortened: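 His-APC11/APC2 auto-ubiquitination was run in casein-blocked nickel plates for 1 h at room temperature, with E1 at 5 ng/well, UbcH5c at 20 ng/well and APC at 100 ng/well. Buffer was 62.5 mM Tris pH 7.6, 3 mM MgCl2, 1 mM DTT, 2.5 mM ATP and Flag-ubiquitin at 100 ng/well. Detection used anti-Flag/HRP chemiluminescence, and IC50 was typically from 6 or 8 concentrations versus a DMSO control.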

[6] = system: A549 cells; assay: Cell proliferation assay, photographic image analysis of proliferation, apoptosis and death (PAD assay), A549; assay type: cell-based; conditions: 6 concentrations tested
Procedure, shortened: as §1

[7] = system: HCT116 cells; assay: Cell proliferation assay, photographic image analysis of proliferation, apoptosis and death (PAD assay), HCT116; assay type: cell-based; conditions: 6 concentrations tested
Description: as §3, §4, §5

[8] = target: T1, E3 (His-APC11/APC2-"APC"); assay: Gel-based E3 ligase assay, auto-ubiquitination; assay type: biochemical
Description: E3 (His-APC11/APC2-“APC”) auto-ubiquitination was measured as described in U.S. patent application Ser. No. 09/826,312 (Publication No. U.S. Pat. No. 2,002,0042083-A1), which is incorporated herein in its entirety. Details of the protocol are described below. Activity in the presence of compound was determined relative to a parallel control in which only DMSO is added. The IC50 values were typically determined using 6 or 8 different concentrations of compound, although as few as 2 concentrations may be used to approximate the IC50 values.
Corning 96-well plates (Corning 3650) were blocked with 100 μl of Blocking Buffer for 1 hour at room temperature. The plates were washed 4 times with 225 μl of 1×PBS and 80 μl of the reaction buffer were added that contained 100 ng/well of Flag-ubiquitin. To this, 10 μl of the test compound diluted in DMSO were added. After the test compound was added, 10 μl of E1 (human), E2 (Ubch5c) and APC in Protein Buffer were added to obtain a final concentration of 5 ng/well of E1, 20 ng/well of E2 and 100 ng/well APC. The plates were shaken for 10 minutes and incubated at room temperature for 1 hour. After incubation, the reaction was stopped by adding 25 μl of loading buffer (non-reducing) per well and the plates were heated at 95° C. for 5 minutes. An aliquot of each well was run on a 10% NugePage Gel and analyzed by Western Blot using the antibody mix and Lumino substrate described below. The luminescence was measured by using a BMG luminescence microplate reader.
To prepare the Blocking Buffer (1 liter; 1% Casein in 1×PBS), 10 grams of Casein (Hammersten Grade Casein from Gallard-Schlesinger Inc. #440203) were placed into 1 liter of 1×PBS, stirred on a hot plate and kept between 50-60° C. for an hour. The buffer was allowed to cool to room temperature and then filtered using a Buchner Funnel (Buchner filter funnel 83 mm 30310-109) and Whatman filter paper (Whatman Grade No. 1 Filter paper 28450-070). It was stored at 4° C. until used.
The reaction buffer consisted of 62.5 mM Tris pH 7.6 (Trizma Base—Sigma T-8524), 3 mM MgCl2 (Magnesium Chloride—Sigma M-2393), 1 mM DTT (Sigma D-9779), 2.5 mM ATP (Roche Boehringer Mann Corp. 635-316), 100 ng/well of Flag-ubiquitin, 0.1% BSA (Sigma A-7906), and 0.05% Tween-20 (Sigma P-7949).
The Protein Buffer consisted of 20 mM Tris pH 7.6, 10% glycerol (Sigma G-5516) and 1 mM DTT.
The antibody mix consisted of 0.25% BSA (Sigma A-7906) in 1×PBS, 1/50,000 anti-Flag (Sigma F-3165), 1/100,000 of anti-Mouse IgG-HRP (Jackson Immunoresearch #115-035-146).
The substrate mix consisted of SuperSignal Substrate from Pierce (catalog number 37070ZZ) and was prepared by mixing 100 ml of the peroxide solution, 100 ml of the enhancer solution and 100 ml of Millie water.

Structure (SMILES)	APC Flag 8 pt [5]	APC Flag (gel) [8]	PAD Assay, HELA 6 pt [1]	Cell Titer-Aqueous, HELA 6 pt [2]	Cell Titer-Aqueous, A549 6 pt [3]	PAD Assay, H1299 6 pt [4]	PAD Assay, A549 6 pt [6]	PAD Assay, HCT116 6 pt [7]
O=[N+]([O-])c1ccc(Oc2c(Cl)cc(S(=O)(=O)Nc3ccc(Cl)c(Cl)c3)cc2Cl)c(Cl)c1 [Compound 167, 3,5-dichloro-4-(2-chloro-4-nitrophenoxy)-N-(3,4-dichlorophenyl)benzenesulfonamide]	+		+	+	+	+	+	
O=S(=O)(Nc1cc(Cl)ccc1Cl)c1ccc(Oc2ncc(C(F)(F)F)cc2Cl)cc1 [Example 253, 4-{[3-chloro-5-(trifluoromethyl)pyridin-2-yl]oxy}-N-(2,5-dichlorophenyl)benzene-sulfonamide]	+		+			+	+	+
O=[N+]([O-])c1ccc(Oc2c(Cl)cc(S(=O)(=O)Nc3cc(C(F)(F)F)ccc3Cl)cc2Cl)c(Cl)c1 [Compound 243, 3,5-dichloro-4-(2-chloro-4-nitrophenoxy)-N-(2-chloro-5-(trifluoromethyl)phenyl]benzenesulfonamide]	+		+			+	+	+
CSc1ccccc1NS(=O)(=O)c1cc(Cl)c(Oc2ccc([N+](=O)[O-])cc2Cl)c(Cl)c1 [Example 191, 3,5-dichloro-4-(2-chloro-4-nitrophenoxy)-N-[2-(methylthio)phenyl]benzenesulfonamide]		− (gel)	+				+	+
O=[N+]([O-])c1ccc(Oc2c(Cl)cc(S(=O)(=O)Nc3ccc4cc[nH]c4c3)cc2Cl)c(Cl)c1 [Example 172, 3,5-dichloro-4-(2-chloro-4-nitrophenoxy)-N-1H-indol-6-ylbenzenesulfonamide]		+ (gel)	+	+	+		+	
O=S(=O)(Nc1cc(C(F)(F)F)ccc1Cl)c1ccc(Oc2ncc(C(F)(F)F)cc2Cl)cc1 [Compound 254, N-[2-chloro-5-(trifluoromethyl)phenyl]-4-{[3-chloro-5-(trifluoromethyl)pyridin-2-yl]oxy}benzenesulfonamide]	+		+			+	+	+

The next lines start with results.

APC Flag 8 pt [5]	APC Flag (gel) [8]	Structure (SMILES)	PAD Assay, HELA 6 pt [1]	Cell Titer-Aqueous, HELA 6 pt [2]	Cell Titer-Aqueous, A549 6 pt [3]	PAD Assay, H1299 6 pt [4]	PAD Assay, A549 6 pt [6]	PAD Assay, HCT116 6 pt [7]
	− (gel)	O=[N+]([O-])c1ccc(Oc2c(Cl)cc(S(=O)(=O)NCCc3ccc(O)cc3)cc2Cl)c(Cl)c1 [Example 223, 3,5-dichloro-4-(2-chloro-4-nitrophenoxy)-N-[2-(4-hydroxyphenyl)ethyl]benzene-sulfonamide]		−	−			
	− (gel)	O=[N+]([O-])c1ccc(Oc2c(Cl)cc(S(=O)(=O)Nc3ccncc3)cc2Cl)c(Cl)c1 [Example 221, 3,5-dichloro-4-(2-chloro-4-nitrophenoxy)-N-pyridin-4-ylbenzenesulfonamide]	−	−	−		−	
	− (gel)	NC(=O)c1ccccc1NS(=O)(=O)c1cc(Cl)c(Oc2ccc([N+](=O)[O-])cc2Cl)c(Cl)c1 [Example 193, 2-({[3,5-dichloro-4-(2-chloro-4-nitrophenoxy)phenyl]sulfonyl}amino)benzamide]						
